Measurements published in US6087355A, “Cephalosporin antibiotics” (Microcide Pharmaceuticals, Inc., priority 1996, dated 2000).
In brackets after ≈: the same amount, converted by molar mass.

Legend:
Test in all cases: In vitro MIC, agar dilution
Format in all cases: cell-based
E. faecalis VanB(Van^R) = details: Enterococcus faecalis, read-out: minimum inhibitory concentration (MIC)
Outline: (§1)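 Agar dilution, Mueller-Hinton; drug 128 → ≤0.25 μg/mL two-fold, duplicates. Inoculum ~10^4 cfu/spot (log phase). 35-36 °C, 16-20 h. MIC = lowest conc. with no growth.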

E. faecium A491(Amp^R) = details: Enterococcus faecium, read-out: minimum inhibitory concentration (MIC)
Outline: as §1

[1] = tested on: S. haemolyticus 05(Meth^R); details: Staphylococcus haemolyticus, read-out: minimum inhibitory concentration (MIC)
Outline: as §1

E. faecium ATCC 35667 = details: Enterococcus faecium, ATCC35667, read-out: minimum inhibitory concentration (MIC)
Outline: as §1

E. coli ATCC 25992 = details: Escherichia coli, ATCC25992, read-out: minimum inhibitory concentration (MIC)
Outline: as §1

S. aureus ATCC 29213 = details: Staphylococcus aureus, ATCC29213, read-out: minimum inhibitory concentration (MIC)
Outline: as §1

E. faecalis ATCC 29212 = details: Enterococcus faecalis, ATCC29212, read-out: minimum inhibitory concentration (MIC)
Outline: as §1

[2] = tested on: S. aureus PC1(Meth^S)(lac^+); details: Staphylococcus aureus, read-out: minimum inhibitory concentration (MIC)
Outline: as §1

Compound: C[C@@H](O)[C@H]1C(=O)N2C(C(=O)O)=C(SCCN=CN)C[C@H]12 [Imipenem, imipenem, reference compound]
- MIC (E. faecalis VanB(Van^R)): 0.5 mg/L (≈ 1.67 µM)
- MIC (E. faecium A491(Amp^R)): > 128 mg/L
- MIC [1]: 64 mg/L (≈ 214 µM)
- MIC (E. faecium ATCC 35667): 4 mg/L (≈ 13.4 µM)
- MIC (E. coli ATCC 25992): ≤ 0.25 mg/L
- MIC (S. aureus ATCC 29213): ≤ 0.25 mg/L
- MIC (E. faecalis ATCC 29212): ≤ 0.25 mg/L
- MIC [2]: ≤ 0.25 mg/L
